Source: patent US3991187A, “Medicinal compositions and methods of use involving phosphoric acid esters” (Aktiebolaget Leo, priority 1971, dated 1976)

Experiments:
[1] = system: prostaglandins E1, E2 F1α and F2α; experiment: PG-inhibitory effect on the isolated gerbil colon; format: cell-based, Gerbils (Meriones unguiculatus); settings: gerbil colon
Experimental: The PG-inhibitory effect of esters of the present invention on the gerbil colon are determined using the general technique described by Eakins, Miller & Karim (J. Pharm. Exp. Ther. 176:441, 1971). Gerbils (Meriones unguiculatus) of own breed, both sexes, weighing 50-80 g are used. The animal is stunned, colon ascendens immediately removed, and a 2-3 cm piece mounted in a 6 ml bath containing a modified de Jalon solution at 28° C and continuously oxygenated. Contractions of the organ are registered either isotonically or isometrically. When testing the inhibitory effect of a compound this is added to the bath 2 min before the addition of prostaglandin. […] Several concentrations of each antagonist are used.

[2] = system: Slow Reacting Substance (SRS); experiment: antagonism to Slow Reacting Substance on the isolated guinea-pig ileum (Mathe & Strandberg); format: cell-based
Experimental: The antagonism to Slow Reacting Substance (SRS) is determined on the isolated guinea-pig ileum as described by Mathe & Strandberg (Acta physiol. scand. 82:460, 1971). Purified SRS is obtained from cat paws perfused with compound 48/80 (Strandberg & Uvnas: Acta physiol. scand. 82:358, 1971). Sodium bis(4-(3-oxo-3-(2,4,6-trihydroxyphenyl)propyl)phenyl) phosphate was tested in this system in several concentrations.

PGE1 = experiment: prostaglandin-stimulated glycolysis of the prepubertal ovary (lactic acid production); format: cell-based, rats; settings: compared with the compound giving 50% reduction at 50-100 μg/ml
Experimental: The action of esters of the present invention on the prostaglandin-stimulated glycolysis of the prepubertal ovary is investigated. The method used has been described in detail by Perklev & Ahren (Life Sciences Part I, 10:1387, 1971). In these experiments ovaries from prepubertal rats are removed and placed in Erlenmeyer flasks containing compounds of this invention dissolved in Krebs biocarbonate buffer. After that the ovaries have been preincubated during 60 min. at 37° C in this medium, they are blotted on filter paper and then washed for 2 min. in plain buffer. The ovaries are then transferred to a new incubation medium containing prostaglandins (PG) dissolved in Krebs bicarbonate buffer and incubated at 37° C for 2 hrs with continuous shaking. The ovarian glycolysis is then determined by measuring the concentration of lactic acid in the incubation medium. When polyphloretin phosphate (PPP) is present in the preincubation medium in a concentration of 500 μg/ml, the subsequent ovarian lactic acid production produced by PGE1 is reduced to about 50% of that obtained with ovaries preincubated in plain buffer. When sodium bis(4-(3-(2,4,6-trihydroxyphenyl)propyl)phenyl)phosphate is investigated in the same experimental system, a 50% reduction of the lactate production is seen when only 50-100 μg/ml of the compound is present in the preincubation medium.

SMILES	selective inhibitory effects compared with PPP [1]	inhibition of SRS [2]	prostaglandin inhibiting activity (PGE1)
O=C(CCc1cccc(OP(=O)(O)Oc2cccc(CCC(=O)c3ccc(OP(=O)(O)O)cc3)c2)c1)c1ccc(OP(=O)(O)O)cc1 [bis(dihydrogen phosphate) of bis(3-(3-(4-hydroxyphenyl)-3-oxopropyl)phenyl hydrogen phosphate]	equal to or superior to that of PPP	inhibit SRS	same order
O=C(C=Cc1ccc(O)cc1)c1c(O)cc(OP(=O)([O-])Oc2cc(O)c(C(=O)C=Cc3ccc(O)cc3)c(O)c2)cc1O.[Na+] [sodium bis(3,5-dihydroxy-4-(3-(4-hydroxyphenyl)-acryloyl)phenyl) phosphate]		inhibit SRS	same order
O=C(CCc1cccc(OP(=O)([O-])Oc2cccc(CCC(=O)c3c(O)cc(O)cc3O)c2)c1)c1c(O)cc(O)cc1O.[Na+] [sodium bis(3-(3-(2,4,6-trihydroxyphenyl)-3-oxopropyl)phenyl) phosphate]	equal to or superior to that of PPP	inhibit SRS	same order
O=C(CCc1cccc(OP(=O)([O-])Oc2cccc(CCC(=O)c3ccc(O)cc3O)c2)c1)c1ccc(O)cc1O.[Na+] [sodium bis(3-(3-(2,4-dihydroxyphenyl)-3-oxopropyl)phenyl) phosphate]	equal to or superior to that of PPP	inhibit SRS	same order
Nc1ccccc1C(=O)CCc1cccc(OP(=O)([O-])Oc2cccc(CCC(=O)c3ccccc3N)c2)c1.[Na+] [sodium bis(3-(3-(2-aminophenyl)-3-oxopropyl)phenyl) phosphate]	equal to or superior to that of PPP		
O=C(CCc1cccc(OP(=O)([O-])Oc2cccc(CCC(=O)c3ccccc3O)c2)c1)c1ccccc1O.[Na+] [sodium bis(3-(3-(2-hydroxyphenyl)-3-oxopropyl)phenyl) phosphate]	equal to or superior to that of PPP	inhibit SRS	
COc1ccc(CCC(=O)c2cccc(OP(=O)([O-])Oc3cccc(C(=O)CCc4ccc(OC)c(CN(C)C)c4)c3)c2)cc1CN(C)C.[Na+] [sodium bis(3-(3-(3-dimethylaminomethyl-4-methoxyphenyl)propionyl)phenyl) phosphate]	equal to or superior to that of PPP		
CN(C)C(=O)Cc1ccc(C(=O)CCc2cccc(OP(=O)([O-])Oc3cccc(CCC(=O)c4ccc(CC(=O)N(C)C)cc4)c3)c2)cc1.[Na+] [sodium bis(3-(3-(4-(N,N-dimethylcarbamoylmethyl)phenyl)-3-oxopropyl)phenyl)phosphate]	equal to or superior to that of PPP		
CCN(CC)c1ccc(CCC(=O)c2cccc(OP(=O)([O-])Oc3cccc(C(=O)CCc4ccc(N(CC)CC)cc4)c3)c2)cc1.[Na+] [sodium bis(3-(3-(4-diethylaminophenyl)propionyl)phenyl) phosphate]	equal to or superior to that of PPP		
COc1cc(CCC(=O)c2cccc(OP(=O)([O-])Oc3cccc(C(=O)CCc4ccc(O)c(OC)c4)c3)c2)ccc1O.[Na+] [sodium bis(3-(3-(4-hydroxy-3-methoxyphenyl)propionyl)phenyl) phosphate]	equal to or superior to that of PPP	inhibit SRS	
O=C(CCc1cccc(OP(=O)(O)Oc2cccc(CCC(=O)c3ccc(O)cc3)c2)c1)c1ccc(O)cc1 [sodium bis(3-(3-(4-hydroxyphenyl-3-oxopropyl)phenyl) phosphate]	equal to or superior to that of PPP	inhibit SRS	same order
COC(=O)Cc1ccc(C(=O)CCc2cccc(OP(=O)([O-])Oc3cccc(CCC(=O)c4ccc(CC(=O)OC)cc4)c3)c2)cc1.[Na+] [sodium bis(3-(3-(4-methoxycarbonylmethylphenyl)-3-oxo-propyl)phenyl) phosphate]	equal to or superior to that of PPP		
Nc1ccccc1C(=O)CCc1ccc(OP(=O)([O-])Oc2ccc(CCC(=O)c3ccccc3N)cc2)cc1.[Na+] [sodium bis(4-(3-(2-aminophenyl)-3-oxopropyl)phenyl) phosphate]	equal to or superior to that of PPP		
Cc1cc(OP(=O)([O-])Oc2ccc(CCC(=O)c3ccccc3O)c(C)c2)ccc1CCC(=O)c1ccccc1O.[Na+] [sodium bis(4-(3-(2-hydroxyphenyl)-3-oxopropyl)-3-methylphenyl) phosphate]	equal to or superior to that of PPP	inhibit SRS	
O=C(CCc1ccc(OP(=O)([O-])Oc2ccc(CCC(=O)c3ccccc3O)cc2)cc1)c1ccccc1O.[Na+] [sodium bis(4-(3-(2-hydroxyphenyl)-3-oxopropyl)phenyl)phosphate]	equal to or superior to that of PPP	inhibit SRS	
Nc1ccc(C(=O)CCc2ccc(OP(=O)(O)Oc3ccc(CCC(=O)c4ccc(N)cc4)cc3)cc2)cc1 [sodium bis(4-(3-(4-aminophenyl)-3-oxopropy)phenyl) phosphate]	equal to or superior to that of PPP		
COc1cc(OP(=O)([O-])Oc2ccc(C(=O)CCc3ccc(N)cc3)c(OC)c2)ccc1C(=O)CCc1ccc(N)cc1.[Na+] [sodium bis(4-(3-(4-aminophenyl)propionyl)-3-methoxyphenyl) phosphate]	equal to or superior to that of PPP		
CCN(CC)c1ccc(C=C(C(=O)c2ccc(OP(=O)([O-])Oc3ccc(C(=O)C(=Cc4ccc(N(CC)CC)cc4)c4ccc(C)cc4)c(OC)c3)cc2OC)c2ccc(C)cc2)cc1.[Na+] [sodium bis(4-(3-(4-diethylaminophenyl)-2-(4-methylphenyl)acryloyl)-3-methoxyphenyl) phosphate]	equal to or superior to that of PPP		
CCN(CC)c1ccc(CCC(=O)c2cc(C)c(OP(=O)([O-])Oc3c(C)cc(C(=O)CCc4ccc(N(CC)CC)cc4)cc3C)c(C)c2)cc1.[Na+] [sodium bis(4-(3-(4-diethylaminophenyl)propionyl)-2,6-dimethylphenyl) phosphate]	equal to or superior to that of PPP		
Nc1cccc(C(=O)CCc2ccc(OP(=O)(O)Oc3ccc(CCC(=O)c4cccc(N)c4)cc3)cc2)c1 [sodium bis(4-(3-aminophenyl)-3-oxypropyl)phenyl) phosphate]	equal to or superior to that of PPP		
O=C(CCCc1ccc(OP(=O)([O-])Oc2ccc(CCCC(=O)c3ccc(O)cc3O)cc2)cc1)c1ccc(O)cc1O.[Na+] [sodium bis(4-(4-(2,4-dihydroxyphenyl)-4-oxobutyl)phenyl) phosphate]	equal to or superior to that of PPP	inhibit SRS	same order
COc1ccc(CCC(=O)c2c(O)cccc2O)cc1OP(=O)([O-])Oc1cc(CCC(=O)c2c(O)cccc2O)ccc1OC.[Na+] [sodium bis(5-(3-(2,6-dihydroxyphenyl)-3-oxopropyl)-2-methoxyphenyl)phosphate]	equal to or superior to that of PPP	inhibit SRS	same order
O=C([O-])Cc1ccc(C(=O)CCc2cccc(OP(=O)([O-])Oc3cccc(CCC(=O)c4ccc(CC(=O)[O-])cc4)c3)c2)cc1.[Na+].[Na+].[Na+] [trisodium bis(3-(3-(4-carboxylatomethylphenyl)-3-oxopropyl)phenyl) phosphate]	equal to or superior to that of PPP	inhibit SRS	same order
O=C([O-])c1ccc(CCC(=O)c2cccc(OP(=O)([O-])Oc3cccc(C(=O)CCc4ccc(C(=O)[O-])cc4)c3)c2)cc1.[Na+].[Na+].[Na+] [trisodium bis(3-(3-(4-carboxylatophenyl)propionyl)phenyl) phosphate]	equal to or superior to that of PPP	inhibit SRS	same order
